In patent US4239901A, “Pyrazol-1-ylphenylacetic acids” (Byk Gulden Lomberg Chemische Fabrik GmbH, priority 1976, dated 1980):
Where two headings read alike, the source gives them in different places.

Assays:
[1] = tested on: pain reaction provoked in the rat through bending of an inflamed ankle joint; test: Analgesic effect, pain reaction provoked through bending of an inflamed ankle joint (AgNO3 inflammation); conditions: for ED25: Rattus norvegicus, po, read-out: Analgesic effect ED25 (= dose which in 25% of the animals completely suppresses the pain reaction); for Therap. Quotient LD50/ED25: Table 5, LD50 mouse i.p. / ED25 rat oral, analgesic
Method: The influence of the compounds which were to be tested on the pain reaction provoked in the rat through bending of an inflamed tarsal joint (AgNO3 inflammation) was determined as follows:
In imitation of HOFFMEISTER et al [Arzneim.Forsch. […] The animals are kept at 24° C. and receive as food Altromin®R and water ad libitum. […] All the positively-reacting animals are concentrated in groups of 10 animals. The compounds which are to be tested are administered orally in a liquid volume of 20 ml/kg 1 hour before the AgNO3 application; the untreated control animals receive the corresponding amount of tap water.
Within 5 hours after administration of the substance the number of reacting animals is ascertained at hourly intervals.
As measure for the analgesic effect there serves the maximum % proportion of the protected animals within 5 hours after administration of the substance [referred to the number of reacting animals of the control group (=100%)]

in vivo = conditions: mouse, ip
[2] = tested on: carrageenin oedema of rat hind paw; test: Inhibition of carrageenin oedema of rat hind paw; conditions: for ED40 / inhibition at 100 mg/kg: Rattus norvegicus; for ED40: po, read-out: Inhibition of carrageenin oedema of rat hind paw by 40% (=ED40) after single oral dose; for Therapeutic Quotient LD50/ED40: Table 2, LD50 mouse i.p. / ED40 rat oral; for inhibition at 100 mg/kg: read-out: oedema inhibition
Method: The influence of the compounds which were to be tested on carrageenin oedema of rat hind paw was determined as follows:
Female Sprague-Dawley rats (groups of, in each instance, 10 animals; weight of each animal 140-170 g) from which food (Altromin®R, water ad libitum) is withheld about 16 hours beforehand are each injected subplantarly in the right hind paw with 0.05 ml of a 1% strength carrageenin suspension 1 hour after oral administration of the compounds which are to be tested. The rats are kept at 24° C.
The determination of the paw volume of each rat (in each case, 2-3 individual measurements) is effected plethysmometrically before and 2 and 4 hours after oedema provocation.
As measure for the antiphlogistic effect there serves the average percentage oedema inhibition (i.e. the average from the measured values obtained 3 and 5 hours after administration of the substance).
The determination of the paw volume is effected plethysmometrically. Measuring principle: the liquid volume displaced by the rat paw is registered digitally via an electromechanical pressure converter (Statham P 23 V, 0-200 mm Hg).
The stated doses of the medicaments tested were administered in a liquid volume of 20 ml/kg.

[3] = tested on: granulation tissue formation in the rat; conditions: Table 3; for Therapeutic Quotient LD50/ED20: LD50 mouse i.p. / ED20 rat oral
Method: Test procedure for the investigation of the influence of the compounds which are to be tested on granulation tissue formation after cotton-wool implantation in the rat (so-called cotton pellet method):
Closure of the skin cut is effected by means of clips.
On seven consecutive days the compounds which are to be tested (as sodium salt in aqueous solution) or the corresponding amount (5 ml/kg/day) of tap water (=control group) are administered orally daily.
On the eighth day the animals are killed, the cotton-wool granulomata are cautiously freed without cutting, i.e. preserving the fibrous capsule, dried (15 hours at 120° C.) and weighed. By deducting the weight component of the cotton-wool pellets the amount of newly formed granulation tissue is obtained.
As measure for the anti-proliferative effect of a compound there serves the percentage lessening of the average granuloma dry weight of a treated group (=16 granulomata) compared to the control group (=100%).

mouse = conditions: for Lethal effect LD50 after single intraperitoneal administration to the mouse: Table 3, single i.p.; for LD50 after a single administration mouse: Table 4, single i.p.; for Toxicity after single intraperitoneal administration to the mouse LD50: Table 5, single i.p.; for Toxicity after single intraperitoneal administration in the mouse LD50: Table 6, single i.p.
[4] = tested on: adjuvant arthritis in the rat (Mycobacterium butyricum); test: Anti-arthritic effect (adjuvant arthritis); type: in vivo, rat (male Sprague-Dawley); conditions: Table 4, LD50 mouse i.p. / ED25 rat oral
Method: In imitation of the method described by NEWBOULD and PERRINE et al. [NEWBOULD, B. B.; Brit. […] Pharmacodyn. […] Antiphlogistic agents inhibit this swelling reaction.
Male Sprague-Dawley rats (150-190 g) are each injected intradermally into the tail root on day zero with 0.1 ml/animal of a 0.5% strength Myobact. butyrum/paraffin oil suspension. […] On the 17th day after administration of adjuvant, all positively-reacting animals (paw volume increase at least 30%) are selected and concentrated in groups of 10 animals with equal paw volume distribution.
The compounds to be tested are now administered on the following 5 days, that is to say from the 17th to the 21st day after administration of adjuvant, once daily orally in 10 ml/kg of liquid.
As measure for the anti-arthritic effect there serves the decrease of the paw swelling on the 21st day after the administration of adjuvant, referred in each case to the paw swelling of the control group (=100%); the paw volume is determined plethysmometrically.

yeast fever of the rat = test: Antipyretic effect, yeast fever of the rat; type: in vivo, rat (female Sprague-Dawley); conditions: read-out: Antipyretic effect ED0.75 (dose which lowers the yeast fever of the rat by 0.75° C.)
Method: The antipyretic effect is determined from the influence of the compounds to be tested on the yeast fever of the rat.
In female Sprague-Dawley rats (in each series of experiments, 30 rats in groups of 5 animals; animal weight 170-200 g) a hyperthermia is produced through subcutaneous injection (neck) of 20 ml/kg of a 20% strength aqueous brewer's yeast suspension (brewers' yeast "Heliosan"/Hefereformwerk Radolfzell). 24 hours after the yeast injection, the body temperature is measured rectally at hourly intervals.
After a preliminary measurement the compounds which are to be tested are administered to the animals orally in a liquid volume of 5 ml/kg; a control group receives the corresponding amount of tap water. Food (Altromin®R, water ad libitum) was withheld from the rats 18 hours beforehand. The rats are kept at about 23° C.
As measure for the antipyretic effect there serves the maximum lowering of temperature (with reference to the temperature of the preliminary measurement, i.e. immediately before administration of the substance) in the course of 4 hours. The body temperature is measured with a Iastomed H (Braun electronic).

| SMILES | ED25 [1] | Therap. Quotient LD50/ED25 [1] | LD50 (in vivo) | ED40 [2] | Therapeutic Quotient LD50/ED40 [2] | Therapeutic Quotient LD50/ED20 [3] | Inhibition of granulation tissue formation after subcutaneous cotton-wool implantation by 20% (=ED20) in the rat after 7-day oral administration [3] | Lethal effect LD50 after single intraperitoneal administration to the mouse (mouse) | LD50 after a single administration mouse (mouse) | Toxicity after single intraperitoneal administration to the mouse LD50 (mouse) | Toxicity after single intraperitoneal administration in the mouse LD50 (mouse) | Therapeutic Quotient LD50/ED25 [4] | ED (0.75 degC) (yeast fever of the rat; Table 6, rat, oral) | ED (0.75 degC) (yeast fever of the rat; po) | inhibition at 100 mg/kg [2] |
| --- | --- | --- | --- | --- | --- | --- | --- | --- | --- | --- | --- | --- | --- | --- | --- |
| CC(C(=O)[O-])c1cc(Cl)c(-n2cccn2)cc1Cl.[Na+] (stereo not drawn) | 2.5 mg/kg | 420 | 1050 mg/kg |  |  |  |  |  |  |  |  |  |  |  |  |
| CC(C(=O)O)c1ccc(-n2cc(Cl)cn2)c(Cl)c1 (stereo not drawn) [I, 2-[3-chloro-4-(4-chloropyrazol-1-yl)phenyl]-propionic acid] | 0.4 mg/kg | 813 | 325 mg/kg | 5 mg/kg | 65 | 108.3 | 3 mg/kg/die | 325 mg/kg i.p. | 325 mg/kg i.p. | 325 mg/kg i.p. | 325 mg/kg i.p. | 1625 | 3.5 mg/kg |  |  |
| O=C(O)Cc1ccc(-n2cc(Cl)cn2)cc1 [II, 4-(4-chloropyrazol-1-yl)phenylacetic acid] |  |  | 460 mg/kg | 8 mg/kg | 58 |  |  |  |  |  |  |  |  |  |  |
| O=C(O)Cc1ccc(-n2cc(Br)cn2)cc1 [III, 4-(4-bromopyrazol-1-yl)phenylacetic acid] | 1.2 mg/kg | 458 | 550 mg/kg | 4 to 5 mg/kg | 122 |  |  |  |  | 550 mg/kg i.p. | 550 mg/kg i.p. |  | 20 mg/kg |  |  |
| O=C(O)Cc1ccc(-n2cc(Cl)cn2)c(Cl)c1 [IV, 3-chloro-4-(4-chloropyrazol-1-yl)phenylacetic acid] | 2.5 mg/kg | 184 | 460 mg/kg | 2 mg/kg | 230 | 23.0 | 20 mg/kg/die | 460 mg/kg i.p. | 460 mg/kg i.p. | 460 mg/kg i.p. |  | 657 |  |  |  |
| CCCCC1C(=O)N(c2ccccc2)N(c2ccccc2)C1=O [IX, phenylbutazone, reference compound] | 2 mg/kg |  |  | 40 mg/kg |  |  | 100 mg/kg/die |  |  |  |  |  | 15 mg/kg |  |  |
| CC(C(=O)O)c1ccc(-n2cc(Br)cn2)c(Cl)c1 (stereo not drawn) [V, 2-[3-chloro-4-(4-bromopyrazol-1-yl)phenyl] acid] | 0.8 mg/kg | 406 | 325 mg/kg | 2 mg/kg | 163 | ~ 32.5 | ~ 10 mg/kg/die |  |  |  |  | 1625 | 5 mg/kg |  |  |
| CC(C(=O)O)c1cc(Cl)c(-n2cc(Br)cn2)cc1Cl (stereo not drawn) [VII, 2-[2,5-dichloro-4-(4-bromopyrazol-1-yl)phenyl]propionic acid] | 1.2 mg/kg | 238 | 285 mg/kg |  |  |  |  |  |  |  |  |  |  |  |  |
| O=C(O)Cc1ccc(-n2cccn2)cc1 [VIII, 4-(pyrazol-1-yl)phenylacetic acid] |  |  | 1200 mg/kg | 8 mg/kg | 150 |  |  |  |  |  | 1200 mg/kg i.p. |  | 32 mg/kg |  |  |
| COc1ccc2c(c1)c(CC(=O)O)c(C)n2C(=O)c1ccc(Cl)cc1 [X, indomethacin, reference compound] | 0.3 mg/kg | 150 | 45 mg/kg | 4 mg/kg | 11 | 12.8 | 3-5 mg/kg/die | 45 mg/kg i.p. | 45 mg/kg i.p. | 45 mg/kg i.p. | 45 mg/kg i.p. | 450 |  | 2.5 mg/kg |  |
| Cn1nc(-c2ccc(CC(=O)O)cc2)cc1-c1ccccc1 [XI, 4-(1-methyl-5-phenylpyrazol-3-yl)phenylacetic acid, reference compound] |  |  | 430 mg/kg | > 100 mg/kg | < 4 |  |  |  |  |  |  |  |  |  | 25% |
| O=C(O)Cc1ccc(-c2cc(-c3ccccc3)n(-c3ccccc3)n2)cc1 [XII, 4-(1,5-diphenyl-pyrazol-3-yl)phenylacetic acid, reference compound] |  |  | 200 mg/kg | 63 mg/kg | 3 |  |  |  |  |  |  |  |  |  |  |
| CN1N=C(c2ccc(CC(=O)O)cc2)CC1c1ccccc1 (stereo not drawn) [XIII, 4-(1-methyl-5-phenyl-2-pyrazoline-3-yl)phenylacetic acid, reference compound] |  |  |  | > 100 mg/kg |  |  |  |  |  |  |  |  |  |  | 25% |
